Reference: ChEMBL document CHEMBL3091354, “Tyrosinase and Layer-by-Layer supported tyrosinases in the synthesis of lipophilic catechols with antiinfluenza activity” (Bioorg Med Chem, 2013)
Values after ≈ are worked out from the molar mass of the structure shown. Active and inactive are the calls of the source. The rule behind the calls is not given here.

Experiments:
[1] = system: Radical scavenging activity; experiment: Antioxidant activity assessed as DPPH radical scavenging activity; assay type: functional
[2] = system: Influenza A virus; experiment: Antiviral activity against Influenza A/PR8/H1N1 virus infected in MDCK cells assessed as inhibition of virus yield at 10 to 20 ug/ml after 48 hrs; assay type: functional, organism-based
[3] = system: Influenza A virus; experiment: Antiviral activity against Influenza A/PR8/H1N1 virus infected in MDCK cells assessed as inhibition of virus yield after 48 hrs; assay type: functional
[4] = system: MDCK; experiment: Cytotoxicity against MDCK cells assessed as effect on cell viability at 50 to 100 ug/ml; assay type: cell-based, Canis lupus familiaris; conditions: dog
[5] = system: MDCK; experiment: Cytotoxicity against MDCK cells assessed as effect on cell viability at 20 ug/ml; assay type: cell-based, Canis lupus familiaris; conditions: dog
[6] = system: MDCK; experiment: Cytotoxicity against MDCK cells assessed as effect on cell morphology at 20 ug/ml; assay type: cell-based, Canis lupus familiaris; conditions: dog
[7] = system: Influenza A virus; experiment: Antiviral activity against Influenza A/PR8/H1N1 virus infected in MDCK cells assessed as inhibition of virus yield after 24 hrs; assay type: functional, organism-based
[8] = system: MDCK; experiment: Cytotoxicity against MDCK cells assessed as effect on cell morphology at 50 to 100 ug/ml; assay type: cell-based, Canis lupus familiaris; conditions: dog

`O=C(O)CCc1ccc(O)cc1` was tested, and the Activity [1] was “inactive”.
In the case of `CCCC(=O)OCCc1ccc(O)cc1`, the Activity [2] is reported as “inactive”.
`CCCOC(=O)CCc1ccc(O)c(O)c1` was tested, and the inhibition [3] was “inactive” and the EC50 [1] was 89.65 mg/L (≈ 400 µM).
With `COC(=O)CCc1ccc(O)cc1` the Activity [1] was “inactive”.
In the case of `CCOC(=O)CCc1ccc(O)c(O)c1`, the inhibition [3] is reported as “inactive” and the EC50 [1] is reported as 136.7 mg/L (≈ 650 µM).
For `O=C(O)CCc1ccc(O)c(O)c1` [DIHYDROCAFFEIC ACID], the inhibition [3] was “inactive” and the EC50 [1] was 61.29 mg/L (≈ 336 µM).
For `CCCC(=O)OCCc1ccc(O)c(O)c1` [HYDROXYTYROSOL BUTANOATE], the Activity [4] was “Toxic”, the Activity [5] was “Non-toxic” and the Activity [6] was “Non-toxic”. For the same compound, the EC50 [1] was 0.58 mg/L (≈ 2.59 µM), the IC50 [7] was 29.8 µM and the inhibition [7] was “Dose-dependent effect”. For the same compound, the Activity [8] was “Toxic”.
For `COC(=O)CCc1ccc(O)c(O)c1`, the inhibition [3] was “inactive” and the EC50 [1] was 161.9 mg/L (≈ 825 µM).
With `CCC(=O)OCCc1ccc(O)c(O)c1` the “inhibition (INH)” value [3] was 75% and the EC50 [1] was 0.56 mg/L (≈ 2.66 µM).
For `CCCCOC(=O)CCc1ccc(O)c(O)c1`, the inhibition [3] was “inactive” and the EC50 [1] was 58.9 mg/L (≈ 247 µM).
`NC(=O)c1ncn([C@@H]2O[C@H](CO)[C@@H](O)[C@H]2O)n1` [RIBAVIRIN] was tested, and the IC50 [7] was 14 µM.
In the case of `CCCCC(=O)OCCc1ccc(O)cc1`, the Activity [2] is reported as “inactive”.
`CC(=O)OCCc1ccc(O)c(O)c1` was tested, and the inhibition [3] was “inactive” and the EC50 [1] was 0.57 mg/L (≈ 2.91 µM).
For `CCCCC(=O)OCCc1ccc(O)c(O)c1`, the Activity [4] was “Toxic”, the Activity [5] was “Non-toxic” and the Activity [6] was “Non-toxic”. For the same compound, the EC50 [1] was 0.59 mg/L (≈ 2.48 µM), the IC50 [7] was 34 µM and the inhibition [7] was “Dose-dependent effect”. For the same compound, the Activity [8] was “Toxic”.
